How the values were obtained:
[1] = tested on: Male HLA-B27 rats; assay: HLA-B27 rat model of arthritis: joint scores; assay type: in vivo; conditions: Study 2
[2] = tested on: Male HLA-B27 rats; assay: HLA-B27 rat test for inflammatory bowel disease: histological scoring of colon; assay type: in vivo; conditions: Study B, oral 4 weeks
Description: Representative metabolites of compounds of the invention were evaluated in the HLA rat standard pharmacological test procedure, which emulates inflammatory bowel disease in humans. The following briefly describes the procedure used and results obtained. […] Louis) and water. Stool quality was observed daily and graded according to the following scale: Diarrhea=3; soft stool=2; normal stool=1. At the end of the study, serum was collected and stored at −70° C. A section of colon was prepared for histological analysis and an additional segment was analyzed for myeloperoxidase activity. In Study A, rats (22-26 weeks old) were dosed subcutaneously once per day for seven days with one of the regimens listed below. […] Histological analysis. Colonic tissue was immersed in 10% neutral buffered formalin. Each specimen of colon was separated into four samples for evaluation. The formalin-fixed tissues were processed in a Tissue-Tek® vaccum infiltration processor (Miles, Inc; West Haven, Conn.) for paraffin embedding. The samples were sectioned at 5 μm and then stained with hematoxylin and eosin (H&E) for blinded histological evaluations using a scale modified after Boughton-Smith. After the scores were completed, the samples were unblinded, and data were tabulated and analyzed by ANOVA linear modeling with multiple mean comparisons. Sections of colonic tissue were evaluated for several disease indicators and given relative scores.

[3] = tested on: Progesterone receptor mRNA; assay: Progesterone receptor mRNA regulation in the preoptic area of the rat brain; assay type: in vivo; conditions: 10 mg/kg
[4] = tested on: Male HLA-B27 rats; assay: HLA rat test for inflammatory bowel disease: stool character (3 = diarrhea; 2 = soft stool; 1 = normal stool); assay type: in vivo; conditions: Study B
[5] = tested on: Sexually immature 129 SvE mice; assay: Mouse uterotrophic test procedure (Procedure 2); assay type: in vivo; conditions: compound 50 mg/kg s.c., days 22-25
[6] = tested on: Sexually immature Sprague-Dawley rats; assay: Rat uterotrophic test procedure (Procedure 1); assay type: in vivo; conditions: compound 2 mg/rat + 17α-ethinyl, 17β-estradiol 0.06 μg/rat s.c. (antagonist mode)
[7] = target: T1, human ERα (Homo sapiens, UniProt P03372); assay: ER radioligand binding competition, ERα; conditions: competition with [3H]-17β-estradiol; read-out: ER-α IC50
T1 construct: These templates contained amino acids M250-V595 of human ERα; His (N); Flag (C); made in house; host or cells: E. coli BL21 (DE3), clarified lysate
T1 sequence (P03372 250-595): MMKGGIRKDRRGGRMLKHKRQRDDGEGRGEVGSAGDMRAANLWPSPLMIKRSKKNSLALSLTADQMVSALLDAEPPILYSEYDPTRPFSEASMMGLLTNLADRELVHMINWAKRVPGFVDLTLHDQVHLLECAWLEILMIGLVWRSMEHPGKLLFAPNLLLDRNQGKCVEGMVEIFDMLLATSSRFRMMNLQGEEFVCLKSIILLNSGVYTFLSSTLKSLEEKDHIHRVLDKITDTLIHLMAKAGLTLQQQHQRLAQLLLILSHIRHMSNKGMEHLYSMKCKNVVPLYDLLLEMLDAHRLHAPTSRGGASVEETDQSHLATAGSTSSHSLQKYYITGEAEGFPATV

[8] = target: T2, human ERβ (Homo sapiens, UniProt Q92731); assay: ER radioligand binding competition, ERβ
T2 construct: Flag (C); made in house; host or cells: E. coli BL21 (DE3), clarified lysate
T2 sequence (Q92731 214-530): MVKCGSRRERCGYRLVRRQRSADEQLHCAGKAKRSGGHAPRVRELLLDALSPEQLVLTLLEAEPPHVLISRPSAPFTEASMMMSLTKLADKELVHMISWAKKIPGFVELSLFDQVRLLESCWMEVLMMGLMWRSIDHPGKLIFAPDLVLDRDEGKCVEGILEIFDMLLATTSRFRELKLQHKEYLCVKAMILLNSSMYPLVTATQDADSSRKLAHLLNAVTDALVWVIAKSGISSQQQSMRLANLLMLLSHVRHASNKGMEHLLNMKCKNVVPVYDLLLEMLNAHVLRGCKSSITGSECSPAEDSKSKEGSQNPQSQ

[9] = oral 20 mg/kg (10 mg/kg days 1-14), Day 16
[10] = oral 20 mg/kg (10 mg/kg days 1-14), Day 17
[11] = oral 20 mg/kg (10 mg/kg days 1-14), Day 19
[12] = oral 20 mg/kg (10 mg/kg days 1-14), Day 22
[13] = oral 20 mg/kg (10 mg/kg days 1-14), Day 23
[14] = oral 20 mg/kg (10 mg/kg days 1-14), Day 26
[15] = 10 mg/kg days 1-14, then 20 mg/kg

Work on `C=CCc1cc(O)cc2nc(-c3ccc(O)c(F)c3)oc12` [Example 34, 7-ALLYL-2-(3-FLUORO-4-HYDROXYPHENYL)-1,3-BENZOXAZOL-5-OL] yielded a Joint inflammation score ([1]; oral 10 mg/kg, Day 1) of 0, a Joint inflammation score ([1]; oral 10 mg/kg, Day 2) of 0 and a Joint inflammation score ([1]; oral 10 mg/kg, Day 3) of 0. For the same compound, the Joint inflammation score ([1]; oral 10 mg/kg, Day 4) was 0, the Joint inflammation score ([1]; oral 10 mg/kg, Day 5) was 0 and the Joint inflammation score ([1]; oral 10 mg/kg, Day 6) was 0. The Joint inflammation score ([1]; oral 10 mg/kg, Day 7) was 0, the Joint inflammation score ([1]; oral 10 mg/kg, Day 8) was 0.25 and the Joint inflammation score ([1]; oral 10 mg/kg, Day 9) was 0.75. It also gave a Joint inflammation score ([1]; oral 10 mg/kg, Day 10) of 0.5, a Joint inflammation score ([1]; oral 10 mg/kg, Day 11) of 0.5 and a Joint inflammation score ([1]; oral 10 mg/kg, Day 12) of 0.25. The Joint inflammation score ([1]; oral 10 mg/kg, Day 13) was 0.5, the Joint inflammation score ([1]; oral 10 mg/kg, Day 14) was 0 and the Joint inflammation score ([1]; oral 10 mg/kg, Day 15) was 0.5. It also gave a Joint inflammation score ([1]; oral 10 mg/kg, Day 16) of 0.5, a Joint inflammation score ([1]; oral 10 mg/kg, Day 17) of 0.25 and a Joint inflammation score ([1]; oral 10 mg/kg, Day 18) of 0.75. It also gave a Joint inflammation score ([1]; oral 10 mg/kg, Day 19) of 1, a Joint inflammation score ([1]; oral 10 mg/kg, Day 22) of 1 and a Joint inflammation score ([1]; oral 10 mg/kg, Day 23) of 1.75. It also gave a Joint inflammation score ([1]; oral 10 mg/kg, Day 24) of 1.75, a Joint inflammation score ([1]; oral 10 mg/kg, Day 25) of 2 and a Joint inflammation score ([1]; oral 10 mg/kg, Day 26) of 3. For the same compound, the “Fibrosis (0-2), mean ± SD” value ([2]; 10 mg/kg) was 0.31 ± 0.32, the “Inflammation (0-3), mean ± SD” value ([2]; 10 mg/kg) was 1.81 ± 0.13 and the “Lesion depth (0-2), mean ± SD” value ([2]; 10 mg/kg) was 0.63 ± 0.32. The “Total score, mean ± SD” value ([2]; 10 mg/kg) was 3.50 ± 1.10, the “Ulceration (0-2), mean ± SD” value ([2]; 10 mg/kg) was 0.75 ± 0.46 and the “Progesterone receptor mRNA (mean ± stdev)” value (from here on “Progesterone receptor mRNA”) [3] was 511.5 ± 23.7 arbitrary units. For the same compound, the “Stool Character (group's average score)” value ([4]; oral 10 mg/kg, Day 1) was 1, the “Stool Character (group's average score)” value ([4]; oral 10 mg/kg, Day 2) was 1 and the “Stool Character (group's average score)” value ([4]; oral 10 mg/kg, Day 3) was 1. The “Stool Character (group's average score)” value ([4]; oral 10 mg/kg, Day 4) was 1.25, the “Stool Character (group's average score)” value ([4]; oral 10 mg/kg, Day 5) was 2 and the “Stool Character (group's average score)” value ([4]; oral 10 mg/kg, Day 6) was 1.75. For the same compound, the “Stool Character (group's average score)” value ([4]; oral 10 mg/kg, Day 7) was 1.75, the “Stool Character (group's average score)” value ([4]; oral 10 mg/kg, Day 8) was 1.5 and the “Stool Character (group's average score)” value ([4]; oral 10 mg/kg, Day 9) was 1.5. For the same compound, the “Stool Character (group's average score)” value ([4]; oral 10 mg/kg, Day 10) was 1.25, the “Stool Character (group's average score)” value ([4]; oral 10 mg/kg, Day 11) was 1.5 and the “Stool Character (group's average score)” value ([4]; oral 10 mg/kg, Day 12) was 1.5. The “Stool Character (group's average score)” value ([4]; oral 10 mg/kg, Day 13) was 1.25, the “Stool Character (group's average score)” value ([4]; oral 10 mg/kg, Day 14) was 1.25 and the “Stool Character (group's average score)” value ([4]; oral 10 mg/kg, Day 15) was 1.25. For the same compound, the “Stool Character (group's average score)” value ([4]; oral 10 mg/kg, Day 16) was 1, the “Stool Character (group's average score)” value ([4]; oral 10 mg/kg, Day 17) was 1 and the “Stool Character (group's average score)” value ([4]; oral 10 mg/kg, Day 18) was 1.25. The “Stool Character (group's average score)” value ([4]; oral 10 mg/kg, Day 19) was 1, the “Stool Character (group's average score)” value ([4]; oral 10 mg/kg, Day 22) was 1 and the “Stool Character (group's average score)” value ([4]; oral 10 mg/kg, Day 23) was 1. For the same compound, the “Stool Character (group's average score)” value ([4]; oral 10 mg/kg, Day 24) was 1, the “Stool Character (group's average score)” value ([4]; oral 10 mg/kg, Day 25) was 1 and the “Stool Character (group's average score)” value ([4]; oral 10 mg/kg, Day 26) was 1.

With `C=Cc1cc(O)cc2nc(-c3ccc(O)cc3F)oc12` [Example 25, 2-(2-FLUORO-4-HYDROXYPHENYL)-7-VINYL-1,3-BENZOXAZOL-5-OL] the Joint inflammation score ([1]; oral 10 mg/kg, Day 1) was 0, the Joint inflammation score ([1]; oral 10 mg/kg, Day 2) was 0 and the Joint inflammation score ([1]; oral 10 mg/kg, Day 3) was 0. For the same compound, the Joint inflammation score ([1]; oral 10 mg/kg, Day 4) was 0, the Joint inflammation score ([1]; oral 10 mg/kg, Day 5) was 0 and the Joint inflammation score ([1]; oral 10 mg/kg, Day 6) was 0. It also gave a Joint inflammation score ([1]; oral 10 mg/kg, Day 7) of 0, a Joint inflammation score ([1]; oral 10 mg/kg, Day 8) of 1 and a Joint inflammation score ([1]; oral 10 mg/kg, Day 10) of 2.25. For the same compound, the Joint inflammation score ([1]; oral 10 mg/kg, Day 11) was 2.25, the Joint inflammation score ([1]; oral 20 mg/kg (10 mg/kg days 1-14), Day 15) was 3.75 and the Joint inflammation score [1, 9] was 3. The Joint inflammation score [1, 10] was 2.75, the Joint inflammation score [1, 11] was 1.5 and the Joint inflammation score [1, 12] was 1.25. For the same compound, the Joint inflammation score [1, 13] was 2.5, the Joint inflammation score [1, 14] was 1.75 and the “mean uterine weight ± SEM” value [5] was 9.7 ± 1.0 mg. For the same compound, the “Fibrosis (0-2), mean ± SD” value [2, 15] was 0.31 ± 0.13, the “Inflammation (0-3), mean ± SD” value [2, 15] was 1.50 ± 0.35 and the “Lesion depth (0-2), mean ± SD” value [2, 15] was 0.44 ± 0.24. The “Total score, mean ± SD” value [2, 15] was 2.69 ± 0.52, the “Ulceration (0-2), mean ± SD” value [2, 15] was 0.44 ± 0.24 and the “Progesterone receptor mRNA” value [3] was 447.0 ± 60.7 arbitrary units. The “Stool Character (group's average score)” value ([4]; oral 10 mg/kg, Day 1) was 1, the “Stool Character (group's average score)” value ([4]; oral 10 mg/kg, Day 2) was 1 and the “Stool Character (group's average score)” value ([4]; oral 10 mg/kg, Day 3) was 1.25. For the same compound, the “Stool Character (group's average score)” value ([4]; oral 10 mg/kg, Day 4) was 1.25, the “Stool Character (group's average score)” value ([4]; oral 10 mg/kg, Day 5) was 1.75 and the “Stool Character (group's average score)” value ([4]; oral 10 mg/kg, Day 6) was 1.5. For the same compound, the “Stool Character (group's average score)” value ([4]; oral 10 mg/kg, Day 9) was 1.75, the “Stool Character (group's average score)” value ([4]; oral 10 mg/kg, Day 10) was 1.5 and the “Stool Character (group's average score)” value ([4]; oral 10 mg/kg, Day 12) was 1.75. The “Stool Character (group's average score)” value ([4]; oral 10 mg/kg, Day 13) was 2.25, the “Stool Character (group's average score)” value [4, 9] was 1.5 and the “Stool Character (group's average score)” value [4, 10] was 1.5. The “Stool Character (group's average score)” value ([4]; oral 20 mg/kg (10 mg/kg days 1-14), Day 18) was 1.5, the “Stool Character (group's average score)” value [4, 11] was 1.25 and the “Stool Character (group's average score)” value [4, 12] was 1.25. The “Stool Character (group's average score)” value [4, 13] was 1.25, the “Stool Character (group's average score)” value ([4]; oral 20 mg/kg (10 mg/kg days 1-14), Day 24) was 1.25 and the “Stool Character (group's average score)” value ([4]; oral 20 mg/kg (10 mg/kg days 1-14), Day 25) was 1.25. For the same compound, the “Stool Character (group's average score)” value [4, 14] was 1.25.

For `Oc1ccc(-c2nc3cc(O)ccc3o2)cc1` [Example 12, 2-(4-HYDROXYPHENYL)-1,3-BENZOXAZOL-5-OL], the “mean uterine weight ± SEM” value [5] was 13.7 ± 0.82 mg, the “mean uterine weight ± SEM” value [6] was 60.2 ± 4.0 mg and the “Progesterone receptor mRNA” value [3] was 256.2 ± 42.3 arbitrary units.

`C=C(F)c1cc(O)cc2nc(-c3ccc(O)c(F)c3)oc12` [Example 64, 2-(3-FLUORO-4-HYDROXYPHENYL)-7-(1-FLUOROVI NYL)-1,3-BENZOXAZOL-5-OL] was tested, and the “mean uterine weight ± SEM” value [5] was 9.8 ± 0.7 mg, the IC50 [7] was 376 nM and the IC50 [8] was 3 nM. The “Progesterone receptor mRNA” value [3] was 431.3 ± 65.6 arbitrary units.

`C=Cc1cc(O)cc2nc(-c3ccc(O)c(F)c3F)oc12` [Example 26, 2-(2,3-DIFLUORO-4-HYDROXYPHENYL)-7-VINYL-1,3-BENZOXAZOL-5-OL] was tested, and the “mean uterine weight ± SEM” value [5] was 9.0 ± 0.3 mg and the “Progesterone receptor mRNA” value [3] was 467.8 ± 66.7 arbitrary units.

Reference: US20060046968A1, “Prodrug substituted benzoxazoles as estrogenic agents” (priority 2004, published 2006)
